Several values for one entry are separate records, joined by “and”; a condition that tells them apart may be missing. Equal values may be shown once.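 Exposure lasted 48 hours, with cells grown in 96-well plates and compounds tested at five concentrations. GI50 marks 50% less growth. Definition used: TGI = concentration required for complete inhibition of growth.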
How the values were obtained:
Test in all cases: growth of human tumour cells (NCI), 48 h
[1] = system: 786-0 renal
[2] = system: MCF7 breast
[3] = system: SNB-19 CNS
[4] = system: HCC-2998 colon
[5] = system: OVCAR-8 ovarian
[6] = system: OVCAR-5 ovarian
[7] = system: MDA-MB-231 breast
[8] = system: MOLT-4 leukemia
[9] = system: DMS 273 small cell lung

Compound | GI50 [1] | TGI [1] | GI50 [2] | TGI [2] | GI50 [3] | TGI [3] | GI50 [4] | TGI [4] | GI50 [5] | TGI [5] | GI50 [6] | TGI [6] | GI50 [7] | TGI [7] | GI50 [8] | TGI [8] | TGI [9]
C=CCN(CC=C)C(=O)[C@H](CC)[C@@H]1CC[C@@H](C)[C@@H]([C@H](C)[C@@H](O)[C@@H](C)C(=O)[C@H](CC)C2O[C@]3(C=C[C@@H](O)[C@]4(CC[C@@](C)([C@H]5CC[C@](O)(CC)[C@H](C)O5)O4)O3)[C@H](C)C[C@@H]2C)O1 (stereo partly specified) | 2.19 µM | 5.48 µM | 1.95 µM | 5.14 µM | 3.08 µM | > 100 µM | 2.41 µM | 7.26 µM | 3.48 µM | 76.4 µM | 2.25 µM | 7.26 µM | 1.77 µM | 3.84 µM | 2.33 µM | 6.01 µM | –
CC1(C)[C@H](O)[C@H](F)C[C@@]2(C)Oc3ccc(C(=O)Nc4ccc5c(c4)NC(=O)C54CCN(CCCCC#N)CC4)cc3C[C@H]12 | 0.0267 µM | 1.8 µM and 4.76 µM | 0.00995 µM | 9.63 µM and 8.28 µM | 0.412 µM and 1.07 µM | 6.81 µM | 6.76 µM and 2.71 µM | 15 µM | 5.36 µM | 45.1 µM | 5.41 µM and 5.82 µM | 34.5 µM | 0.842 µM and 0.537 µM | 8.56 µM | 0.00568 µM | 1.09 µM and 1.63 µM | –
COc1ccc(S(=O)(=O)N2CCNCC2)cc1OC | > 100 µM | > 100 µM | > 100 µM | > 100 µM | > 100 µM | > 100 µM | > 100 µM | > 100 µM | > 100 µM | > 100 µM | > 100 µM | > 100 µM | > 100 µM | > 100 µM | > 100 µM | > 100 µM | –
CC1=NNC(=S)NCCCN2CCN(CCCNC(=S)NN=C(C)C=NNC(=S)NCCCN3CCN(CCCNC(=S)NN=C1)CC3)CC2 | – | > 100 µM | – | > 100 µM | – | > 100 µM | – | > 100 µM | – | > 100 µM | – | > 100 µM | – | > 100 µM | – | > 100 µM | –
CC(C)N(Cc1ccc(F)cc1)c1ccc(CO)c(Cl)c1 | 7 µM | 22.1 µM | 0.181 µM | 13.2 µM | 12.2 µM | 25.3 µM | 2.81 µM | 20 µM | 10.6 µM | 25 µM | 0.0576 µM | 0.247 µM | 12.4 µM | 25.6 µM | 11 µM | 32.6 µM | –
c1ccc(-c2csc3ncn4cnnc4c23)cc1 | – | > 100 µM | – | – | – | > 100 µM | – | > 100 µM | – | > 100 µM | – | – | – | – | – | > 100 µM | > 100 µM
O=S(=O)(O)c1ccc2cc3nn(-c4ccc(/C=C/c5ccc(-n6nc7cc8ccc(S(=O)(=O)O)cc8cc7n6)cc5S(=O)(=O)O)c(S(=O)(=O)O)c4)nc3cc2c1 | > 100 µM | > 100 µM | > 100 µM | > 100 µM | > 100 µM | > 100 µM | 73.8 µM | > 100 µM | > 100 µM | > 100 µM | 62.5 µM | > 100 µM | 37 µM | > 100 µM | 12.2 µM | 81.7 µM | –
Fc1ccc2nc(-c3nc(-c4ccccc4)n4ccccc34)[nH]c2c1 | 2.23 µM | 4.23 µM | 1.37 µM | 5.59 µM | 2.37 µM | 6.22 µM | 4.11 µM | 16.9 µM | 1.87 µM | 4.1 µM | 3.07 µM | 9.04 µM | 2.45 µM | 10.7 µM | 3.6 µM | > 100 µM | –
COc1ccc2c(c1)C(=O)c1c-2c(=O)n(CCCN(C)C)c2cc(OC)c(OC)cc12 | 6.93 µM | 20.5 µM | 0.141 µM | 15.3 µM | 3.3 µM | 20.6 µM | 14.1 µM | 27.3 µM | 4.6 µM | 23 µM | 20.3 µM | 35.7 µM | 14.4 µM | 28.5 µM | 0.149 µM | 12 µM | –
Cc1ccc(-n2c(-c3cc4c([nH]c5ccccc54)c(-c4cccc(O)c4)n3)n[nH]c2=S)cc1 | 2.6 µM | 12.8 µM | 1.8 µM | 10.5 µM | 0.403 µM | 3.7 µM | 0.268 µM | 0.838 µM | 0.442 µM | 3.67 µM | 3.73 µM | 17.1 µM | 1.35 µM | 6.35 µM | 0.908 µM | 4.76 µM | –
N#C/C(=C1\OC(=N)C(c2ccc(Cl)cc2Cl)C1=O)c1ccc(Cl)cc1Cl (stereo unspecified) | – | > 100 µM | – | – | – | > 100 µM | – | – | – | > 100 µM | – | > 100 µM | – | – | – | > 100 µM | > 100 µM
CC1CCN(CCOc2ccc(CNc3ccc4nc(CCC5CCCCC5)[nH]c4c3)cc2)CC1 | 1.43 µM | 2.79 µM | 1.73 µM | 3.8 µM | 2.03 µM | 4.2 µM | 1.42 µM | 2.85 µM | 1.96 µM | 4.24 µM | 1.76 µM | 3.44 µM | 1.53 µM | 2.94 µM | 1.6 µM | 4.5 µM | –
O=C1/C(=C/c2ccccc2O)N=C(c2ccccc2)N1c1cc(C(F)(F)F)ccc1Cl | 18.3 µM | 44.1 µM | 3.04 µM | > 100 µM | 31.6 µM | > 100 µM | > 100 µM | > 100 µM | 46.3 µM | > 100 µM | > 100 µM | > 100 µM | 20.7 µM | 71.2 µM | > 100 µM | > 100 µM | –
C[C@H]1CN(C2COC2)CCN1c1ccc(Nc2cc(-c3ccnc(N4CCn5c(cc6c5CC(C)(C)C6)C4=O)c3CO)cn(C)c2=O)nc1 | 19.5 µM | > 100 µM | 28.7 µM | > 100 µM | 51.2 µM | > 100 µM | 49.9 µM | > 100 µM | 54.3 µM | > 100 µM | 73 µM | > 100 µM | 26.1 µM | > 100 µM | 14.3 µM | > 100 µM | –
COc1cc(-c2ncn(/C=C\c3nnco3)n2)cc(C(F)(F)F)c1 | 0.465 µM | > 51.9 µM | 0.179 µM | > 33.4 µM | 0.175 µM | > 100 µM | 0.215 µM | 4.5 µM | 0.0813 µM | > 47 µM | 1.78 µM | > 100 µM | 0.208 µM | > 71.2 µM | 0.0411 µM | – | –

Source: PubChem BioAssay (NCI)
